Here are results for 2 molecules from article PMC11557892, “Structural basis of MICAL autoinhibition” (Nature Communications, 2024).

In one test the target is T1, human MICAL1 (Homo sapiens, UniProt Q8TDZ2).
T1 construct: full length M1-G1067, C-terminal 3C-His8 tag, baculovirus-infected Sf9 cells
T1 sequence (Q8TDZ2 1-1067): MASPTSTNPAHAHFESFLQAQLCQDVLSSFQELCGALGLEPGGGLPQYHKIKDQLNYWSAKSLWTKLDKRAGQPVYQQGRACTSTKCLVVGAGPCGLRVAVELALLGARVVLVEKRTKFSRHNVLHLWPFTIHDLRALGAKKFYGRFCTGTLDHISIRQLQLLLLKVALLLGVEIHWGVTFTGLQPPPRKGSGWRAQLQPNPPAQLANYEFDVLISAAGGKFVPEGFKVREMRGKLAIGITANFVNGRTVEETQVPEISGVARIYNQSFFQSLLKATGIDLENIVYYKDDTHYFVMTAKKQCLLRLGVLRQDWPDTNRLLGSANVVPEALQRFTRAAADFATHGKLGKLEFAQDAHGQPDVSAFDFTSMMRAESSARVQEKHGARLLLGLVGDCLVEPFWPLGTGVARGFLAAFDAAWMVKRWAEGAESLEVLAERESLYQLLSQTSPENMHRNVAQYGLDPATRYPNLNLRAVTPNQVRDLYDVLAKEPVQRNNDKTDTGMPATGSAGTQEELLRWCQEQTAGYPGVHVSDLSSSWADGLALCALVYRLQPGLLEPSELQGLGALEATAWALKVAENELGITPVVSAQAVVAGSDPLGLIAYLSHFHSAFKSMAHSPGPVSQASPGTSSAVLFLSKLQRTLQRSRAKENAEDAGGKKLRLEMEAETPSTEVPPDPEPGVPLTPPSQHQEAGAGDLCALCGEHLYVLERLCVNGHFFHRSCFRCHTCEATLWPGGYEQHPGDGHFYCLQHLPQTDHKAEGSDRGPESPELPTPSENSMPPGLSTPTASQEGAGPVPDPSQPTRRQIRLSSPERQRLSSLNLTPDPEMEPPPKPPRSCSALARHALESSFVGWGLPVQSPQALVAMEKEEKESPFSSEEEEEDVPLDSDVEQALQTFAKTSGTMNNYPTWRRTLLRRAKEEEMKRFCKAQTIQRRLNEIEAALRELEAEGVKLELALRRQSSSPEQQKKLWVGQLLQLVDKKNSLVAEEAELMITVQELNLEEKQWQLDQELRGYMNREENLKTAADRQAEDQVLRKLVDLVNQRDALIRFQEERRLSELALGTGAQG
Nature of the test: cryo-EM structure, […] Å. Particulars: oxidized state, planar isoalloxazine ring; co-purified, non-covalent; deep cavity of MO domain, stacking with Trp400; autoinhibited full-length enzyme. The class given is binding.

Test [1] has as its target T2, human MICAL1^ΔCC (residues M1-A917) (human, UniProt Q8TDZ2 1-917).
T2 construct: human MICAL1 lacking the CC domain, residues M1-A917 (MO, L1, CH, L2, LIM, L3); also called MICAL^ΔCC; source: baculovirus-infected Sf9 cells, purified (HisTrap FF, Superdex 200)
T2 sequence (looked up): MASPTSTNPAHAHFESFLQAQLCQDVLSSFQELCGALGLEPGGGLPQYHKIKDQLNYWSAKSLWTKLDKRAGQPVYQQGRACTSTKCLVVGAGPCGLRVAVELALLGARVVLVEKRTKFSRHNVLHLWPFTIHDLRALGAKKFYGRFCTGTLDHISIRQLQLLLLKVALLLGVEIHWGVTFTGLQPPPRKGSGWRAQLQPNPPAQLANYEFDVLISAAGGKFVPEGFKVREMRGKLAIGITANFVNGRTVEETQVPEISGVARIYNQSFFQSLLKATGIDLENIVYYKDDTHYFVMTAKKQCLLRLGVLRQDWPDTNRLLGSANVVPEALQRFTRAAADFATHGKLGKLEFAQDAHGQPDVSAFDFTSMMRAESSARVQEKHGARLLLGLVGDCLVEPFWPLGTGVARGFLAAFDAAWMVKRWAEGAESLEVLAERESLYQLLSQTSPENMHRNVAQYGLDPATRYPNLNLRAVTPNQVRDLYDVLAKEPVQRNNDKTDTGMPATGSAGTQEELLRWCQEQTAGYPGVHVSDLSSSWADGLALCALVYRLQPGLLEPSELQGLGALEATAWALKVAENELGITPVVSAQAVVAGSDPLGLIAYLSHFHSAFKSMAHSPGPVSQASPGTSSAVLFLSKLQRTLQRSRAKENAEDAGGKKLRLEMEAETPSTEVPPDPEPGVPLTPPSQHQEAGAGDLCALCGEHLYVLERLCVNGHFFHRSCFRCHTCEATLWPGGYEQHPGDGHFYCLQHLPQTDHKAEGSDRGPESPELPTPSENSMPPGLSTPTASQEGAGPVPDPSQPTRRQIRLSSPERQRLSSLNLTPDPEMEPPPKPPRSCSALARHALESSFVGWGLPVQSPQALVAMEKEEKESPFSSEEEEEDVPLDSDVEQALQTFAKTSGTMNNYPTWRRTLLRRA
Kind of test: BLI; biotinylated CC domain immobilised (8.8 µg/ml) on Octet SAX biosensors, MO or MICAL1^ΔCC as analyte; 20 mM HEPES pH 7.4, 150 mM NaCl, 2 mM DTT, 2 mM MgCl2, 0.05% Tween 20, 20 °C; duplicates. Particulars: both partners purified.

As to `Cc1cc2nc3c(=O)[nH]c(=O)nc-3n(C[C@H](O)[C@H](O)[C@H](O)COP(=O)(O)OP(=O)(O)OC[C@H]3O[C@@H](n4cnc5c(N)ncnc54)[C@H](O)[C@@H]3O)c2cc1C` [FAD], on human MICAL1, the “cryo-EM structure, 3.1 Å” value is given as “A deep cavity located between these subdomains is partially occupied by the FAD cofactor”.

B1: biotinylated human MICAL1^CC (residues K918-G1067) (domain or fragment, UniProt Q8TDZ2 918-1067, looked up)
chain: KEEEMKRFCKAQTIQRRLNEIEAALRELEAEGVKLELALRRQSSSPEQQKKLWVGQLLQLVDKKNSLVAEEAELMITVQELNLEEKQWQLDQELRGYMNREENLKTAADRQAEDQVLRKLVDLVNQRDALIRFQEERRLSELALGTGAQG
modifications: biotin on the Avi tag (biotinylated in vivo)
notes: human MICAL1 coiled-coil (CC) domain, residues K918-G1067; The BLI construct; also called CC domain; coiled-coil domain; source: E. coli BL21(DE3)BirA, biotinylated in vivo, purified (HisTrap Talon, Superdex 200); not shown: Avi tag, C-terminal, kept
Regarding B1, in test [1], the dissociation constant (Kd) came to 580 ± 170 nM.
